{"source": "patent US7816410B2", "about": "“Pesticidal compositions” (priority 2003, dated 2010)", "assay_type_in_all_cases": "in vivo", "conditions_in_all_cases": "15 gai/hL", "key": {"[1]": {"tested_on": "glasshouse whitefly (Trialeurodes vaporariorum)", "experiment": "Whitefly ovicide protectant test", "description": "(§1) The aim of this study was to determine the efficacy of the compositions of the invention on separate life stages of the glasshouse whitefly (Trialeurodes vaporariorum). Three studies were undertaken, the first to determine the efficacy of the composition of the invention as an ovicide in both protectant and curative treatments. The following composition (Composition B) was prepared: All treatments were applied to tobacco plants (var. Tobacco nicotiana) using a hand-held atomiser (CEME-984), applied to both surfaces of the leaf, to incipient run-off. The composition was applied at 5000, 1000, 200, 100 and 50 mL product/hL, Imidacloprid (reference item) was applied at 15 gai/hL and controls were sprayed with deionised water only. Three replicate plants were sprayed for each treatment. The treated plants were maintained in a controlled environment room at 22.9-34.4° C., with lighting on a 16 h light/8 h dark cycle. Light intensity was recorded as 870-1464 lux. Relative humidity was recorded as being between 25.1-85.2%. For the ovicide test, plants were treated (both infested and uninfested with eggs). For the curative test, leaf discs were taken and egg numbers counted. For the protectant test, treated plants were infested after treatment then leaf discs taken with known numbers of eggs. […]"}, "[2]": {"tested_on": "glasshouse whitefly (Trialeurodes vaporariorum)", "experiment": "Whitefly ovicide curative test", "description": "as §1"}, "[3]": {"tested_on": "glasshouse whitefly (Trialeurodes vaporariorum)", "experiment": "Whitefly adult repellence (protectant) test", "source_text": "The aim of this study was to determine the efficacy of the compositions of the invention on separate life stages of the glasshouse whitefly (Trialeurodes vaporariorum). A second test was to determine the efficacy of composition B as a curative treatment against whitefly nymphs and the third test was to determine the effects of the composition as a (repellent) protectant spray against whitefly adults. All treatments were applied to tobacco plants (var. Tobacco nicotiana) using a hand-held atomiser (CEME-984), applied to both surfaces of the leaf, to incipient run-off. The composition was applied at 5000, 1000, 200, 100 and 50 mL product/hL, Imidacloprid (reference item) was applied at 15 gai/hL and controls were sprayed with deionised water only. Three replicate plants were sprayed for each treatment. The treated plants were maintained in a controlled environment room at 22.9-34.4° C., with lighting on a 16 h light/8 h dark cycle. Light intensity was recorded as 870-1464 lux. Relative humidity was recorded as being between 25.1-85.2%. The adult protectant test, assessed the numbers of alive adults on treated leaves after immersion in an adult whitefly infested chamber, 15 and 18 days after application."}, "[4]": {"tested_on": "glasshouse whitefly (Trialeurodes vaporariorum)", "experiment": "Whitefly nymph curative test", "source_text": "The aim of this study was to determine the efficacy of the compositions of the invention on separate life stages of the glasshouse whitefly (Trialeurodes vaporariorum).\nA second test was to determine the efficacy of composition B as a curative treatment against whitefly nymphs and the third test was to determine the effects of the composition as a (repellent) protectant spray against whitefly adults.\nAll treatments were applied to tobacco plants (var. Tobacco nicotiana) using a hand-held atomiser (CEME-984), applied to both surfaces of the leaf, to incipient run-off. The composition was applied at 5000, 1000, 200, 100 and 50 mL product/hL, Imidacloprid (reference item) was applied at 15 gai/hL and controls were sprayed with deionised water only.\nThree replicate plants were sprayed for each treatment. The treated plants were maintained in a controlled environment room at 22.9-34.4° C., with lighting on a 16 h light/8 h dark cycle. Light intensity was recorded as 870-1464 lux. Relative humidity was recorded as being between 25.1-85.2%.\nFor the curative nymph test, leaves with nymphs 7-12 days old were treated and assessments of mortality made at 4, 7 and 10 days after application."}}}
{"smiles": "O=[N+]([O-])NC1=NCCN1Cc1ccc(Cl)nc1", "note": "[Imidacloprid]", "values": [{"measurement": "percentage whitefly egg hatch", "setting": "[1]; 1 DAA", "value": 0.0, "unit": "%"}, {"measurement": "percentage whitefly egg hatch", "setting": "[1]; 3 DAA", "value": 0.0, "unit": "%"}, {"measurement": "percentage whitefly egg hatch", "setting": "[1]; 7 DAA", "value": 0.0, "unit": "%"}, {"measurement": "percentage whitefly egg hatch", "setting": "[2]; 1 DAA", "value": 0.0, "unit": "%"}, {"measurement": "percentage whitefly egg hatch", "setting": "[2]; 3 DAA", "value": 75.2, "unit": "%"}, {"measurement": "percentage whitefly egg hatch", "setting": "[2]; 7 DAA", "value": 91.4, "unit": "%"}, {"measurement": "number of adult whitefly per leaf", "setting": "[3]; 15 DAA", "value": 0}, {"measurement": "number of adult whitefly per leaf", "setting": "[3]; 18 DAA", "value": 0}, {"measurement": "percentage whitefly nymph mortality", "setting": "[4]; 4 DAA", "value": 100.0, "unit": "%"}, {"measurement": "percentage whitefly nymph mortality", "setting": "[4]; 7 DAA", "value": 100.0, "unit": "%"}, {"measurement": "percentage whitefly nymph mortality", "setting": "[4]; 10 DAA", "value": 100.0, "unit": "%"}]}
